Experimental data taken from patent EP0068239A2, “Sulfamoylbenzoic acid derivatives and pharmaceutical compositions comprising same” (MITSUI TOATSU CHEMICALS, Inc., priority 1981, dated 1983).

Columns and labels:
anesthetized dogs = test: Diuretic effect in anesthetized dogs (urine collection via ureter cannulae); format: in vivo, Adult mongrel dogs; conditions: for ED100: 10 min, dose at which urine collected for 10 minutes after administration is twice the amount collected for 10 minutes before; for diuretic effect: high dose of 2 mg/kg
Method: Evaluation Test 2 [Diuretic effect in anesthetized dogs3
Adult mongrel dogs of either sex were used in this experiment. Each dog was anesthetized by intravenous administration of 30 mg/kg of pentobarbital sodium. Thereafter, a midline incision was made in the lower abdominal region and polyethylene cannulae for the collection of urine were inserted into the right and left ureters. In addition, a polyethylene cannula was inserted into the left femoral vein, through which 50 ml of physiological saline was administered. Thirty minutes after that, physiological saline was continuously infused at a rate of 1.5 ml/min. The experiment was started after the rate of urine excretion became constant. A compound to be tested was dissolved in dimethylformamide and administered intravenously by way of the right femoral vein, and blood pressure was surgically monitored by way of the right femoral artery.
The ED100 of the compound was defined as the dose at which the amount of urine collected for 10 minutes after the administration of the compound was equal to twice the amount of urine collected for 10 minutes before the administration.

[1] = test system: rats with DOCA/saline-induced hypertension; test: Hypotensive activity in rats with DOCA/saline-induced hypertension (systolic pressure measured indirectly through the caudal artery); format: in vivo, male Wistar rats; conditions: 30 mg/kg orally once a day for 5 days, versus initial value; for Percent change of systolic pressure Day 1: measured 4 hour after administration on day 1; for Percent change of systolic pressure Day 3: measured 4 hour after administration on day 3; for Percent change of systolic pressure Day 5: measured 4 hour after administration on day 5
Method: Evaluation Test 1 (Hypotensive activity in rats with DOCA/saline-induced hypertension]
Rats with DOCA/saline-induced hypertension were prepared according to the method described in an article by H. Selye, C.E. Hall and E.M. Rowly tCanadian Medical Association Journal, Vol. 49, p. 88, 1943). More specifically, 5-weeks-old male Wistar rats, weighing 100 to 120 g, were placed under anesthesia with ether and their left kidney was excised. Thereafter, they were allowed to take saline (a 1% aqueous solution of sodium chloride) instead of water. In addition, 10 mg/kg of deoxycorticosterone acetate was subcutaneously administered once a week. After 4-6 weeks, these rats developed hypertension.
Blood pressure was measured according to the method described in an article by M. Gerold and H. Tschirky (Arzneimittelforschung, Vol. 18, p. 1285, 1968). More specifically, using a Model 8002 or 8005 BP Recorder (W+W Electronic Co.), the systolic pressure of each rat was indirectly measured through the caudal artery. The rats were placed in a high-temperature environment (45±2°C) prior to every measurement. Among the rats (aged 15-17 weeks) with DOCA/saline-induced hypertension, only those showing a systolic pressure of 170 mmHg or above were used in groups of 3 or 4.
A compound to be tested was suspended in a 0.2% solution of carboxymethyl cellulose and administered orally to the rats in a dose of 30 mg/kg. This administration was performed once a day and continued for 5 days. Blood pressure measurements were made before the administration of the compound and 4 hour after the administration on days 1, 3, and 5.

[2] = Canis lupus familiaris, intravenous

| Structure (SMILES) | ED100 (anesthetized dogs; [2]) | diuretic effect (anesthetized dogs; intravenous) | Percent change of systolic pressure Day 1 [1] | Percent change of systolic pressure Day 3 [1] | Percent change of systolic pressure Day 5 [1] | minimal effective dose (anesthetized dogs; Canis lupus familiaris, intravenous, anesthetized dogs, read-out: dose at which the compound began to exert a diuretic effect) | increase of urine excretion (factor) (anesthetized dogs; intravenous dose of 0.2 mg/kg) |
| --- | --- | --- | --- | --- | --- | --- | --- |
| CC1Cc2ccccc2N1NC(=O)c1cc(S(N)(=O)=O)c(Cl)cc1Cl (stereo not shown) [Example 1, N-(2,4-dichloro-5-sulfamoylbenzamido)-2-methylindoline] | > 2 mg/kg | little diuretic effect | -12% | -25% | -28% | – | – |
| CC1Cc2ccccc2N1NC(=O)c1cc(S(N)(=O)=O)c(Cl)cc1Br (stereo not shown) [Example 2, N-(2-bromo-4-chloro-5-sulfamoylbenzamido)-2-methylindoline] | > 2 mg/kg | little diuretic effect | -12% | -24% | -25% | – | – |
| CC1Cc2ccccc2N1NC(=O)c1ccc(Cl)c(S(N)(=O)=O)c1 (stereo not shown) [Indapamide, N-(3-sulfamoyl-4-chlorobenzamido)-2-methylindoline, reference compound] | 0.2 mg/kg | – | -13% | -20% | -22% | 0.05 mg/kg | approximately 2 |
